23 compounds from patent publication US12358915B2, “METTL3 inhibitory compounds” (STORM THERAPEUTICS LTD., priority 2019, dated 2025) can be followed below.

pIC50: −log10 of the molar value.

T1 sequence (Q86U44 whole entry): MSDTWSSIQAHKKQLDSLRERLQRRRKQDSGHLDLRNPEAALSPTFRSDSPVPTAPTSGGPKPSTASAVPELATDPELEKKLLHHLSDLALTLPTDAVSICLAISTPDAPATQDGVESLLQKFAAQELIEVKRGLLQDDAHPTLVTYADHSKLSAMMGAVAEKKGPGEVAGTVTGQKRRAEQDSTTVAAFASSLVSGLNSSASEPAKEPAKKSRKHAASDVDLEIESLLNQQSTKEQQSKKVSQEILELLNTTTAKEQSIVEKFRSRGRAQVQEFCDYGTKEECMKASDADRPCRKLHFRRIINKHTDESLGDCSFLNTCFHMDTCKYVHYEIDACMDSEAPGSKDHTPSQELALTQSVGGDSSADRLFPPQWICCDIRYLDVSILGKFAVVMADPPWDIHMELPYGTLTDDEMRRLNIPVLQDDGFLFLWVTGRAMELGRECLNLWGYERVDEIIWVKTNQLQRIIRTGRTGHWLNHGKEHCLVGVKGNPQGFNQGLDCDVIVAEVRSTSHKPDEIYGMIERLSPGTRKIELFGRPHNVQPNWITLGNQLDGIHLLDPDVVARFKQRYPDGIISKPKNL
T1 sequence (Q9HCE5 whole entry partner): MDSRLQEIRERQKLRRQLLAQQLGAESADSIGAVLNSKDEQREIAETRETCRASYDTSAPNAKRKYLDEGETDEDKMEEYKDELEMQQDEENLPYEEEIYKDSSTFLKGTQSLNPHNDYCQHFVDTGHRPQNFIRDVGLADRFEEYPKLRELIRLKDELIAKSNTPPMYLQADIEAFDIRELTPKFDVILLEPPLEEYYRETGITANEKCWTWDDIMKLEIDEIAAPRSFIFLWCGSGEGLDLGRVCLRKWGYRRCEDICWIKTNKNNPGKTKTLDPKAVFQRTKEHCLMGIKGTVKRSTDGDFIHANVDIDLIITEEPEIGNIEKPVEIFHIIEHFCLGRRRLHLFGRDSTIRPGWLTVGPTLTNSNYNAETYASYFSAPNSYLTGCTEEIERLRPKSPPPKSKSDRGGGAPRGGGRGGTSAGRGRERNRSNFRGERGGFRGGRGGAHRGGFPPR

The assay has as its target T1, METTL3/14 (Homo sapiens, UniProt Q86U44).
T1 construct: The enzyme used was full-length his-tagged METTL3; His; made in house
Kind of assay: METTL3/14 methyltransferase assay (METTL3_14 RFMS, RapidFire mass spectrometry).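 Note: recombinant His-tagged METTL3 with FLAG-tagged METTL14 from baculovirus, SAH product quantified by mass spectrometry against isotope-labelled internal standards, 60 min at room temperature, scaled between no-RNA and DMSO-only wells.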 The conditions noted are these: 5 nM METTL3/14, 0.2 μM RNA substrate, 0.5 μM SAM; lower limit of the assay IC50=5 nM; Compounds 63-265; read-out: METTL3_14 RFMS IC50. In kind it is biochemical.
Regarding `O=C(NCc1cn2cc(CNC[C@@H]3CCCO3)ccc2n1)c1cc(=O)n2ccccc2n1` [Compound 117, 4-oxo-N-({6-[({[(2S)-oxolan-2-yl]methyl}amino)methyl]imidazo[1,2-a]pyridin-2-yl}methyl)-4H-pyrido[1,2-a] pyrimidine-2-carboxamide], the pIC50 is 7.08.
Under `O=C(NCc1cn2cc(CNC[C@H]3CCCO3)ccc2n1)c1cc(=O)n2ccccc2n1` [Compound 118, 4-oxo-N-({6-[({[(2R)-oxolan-2-yl]methyl}amino)methyl]imidazo[1,2-a]pyridin-2-yl}methyl)-4H-pyrido[1,2-a]pyrimidine-2-carboxamide] stands 7.06.
As for `O=C(NCc1cn2cc(CNCC(F)F)ccc2n1)c1cc(=O)n2ccccc2n1` [Compound 119, N-[(6-{[(2,2-difluoroethyl)amino]methyl}imidazo[1,2-a]pyridin-2-yl)methyl]-4-oxo-4H-pyrido[1,2-a] pyrimidine-2-carboxamide], the pIC50 was 6.24.
As to `O=C(NCc1cn2cc(CNCC3CCOC3)ccc2n1)c1cc(=O)n2ccccc2n1` (centres unmarked) [Compound 120, 4-oxo-N-{[6-({[(oxolan-3-yl)methyl]amino}methyl)imidazo[1,2-a]pyridin-2-yl]methyl}-4H-pyrido [1,2-a]pyrimidine-2-carboxamide], the pIC50 is 7.61.
For `CC1(CNCc2ccc3nc(CNC(=O)c4cc(=O)n5ccccc5n4)cn3c2)CC1` [Compound 121, N-{[6-({[(1-methylcyclopropyl)methyl]amino}methyl)imidazo [1,2-a]pyridin-2-yl]methyl}-4-oxo-4H-pyrido [1,2-a]pyrimidine-2-carboxamide], the pIC50 is 7.77.
`O=C(NCc1cn2cc(CNC3CCOC3)ccc2n1)c1cc(=O)n2ccccc2n1` (centres unmarked) [Compound 122, 4-oxo-N-[(6-{[(oxolan-3-yl)amino]methyl}imidazo[1,2-a]pyridin-2-yl)methyl]-4H-pyrido[1,2-a] pyrimidine-2-carboxamide]: the pIC50 is 6.96.
`COC(=O)C(NCc1ccc2nc(CNC(=O)c3cc(=O)n4ccccc4n3)cn2c1)C(C)C` (centres unmarked) [Compound 123, methyl 3-methyl-2-[({2-[({4-oxo-4H-pyrido[1,2-a]pyrimidin-2-yl}formamido)methyl]imidazo [1,2-a]pyridin-6-yl}methyl)amino] butanoate]: the pIC50 was 6.48.
With `O=C(NCc1cn2cc(CNC3CCCOC3)ccc2n1)c1cc(=O)n2ccccc2n1` (centres unmarked) [Compound 124, N-[(6-{[(oxan-3-yl)amino]methyl}imidazo[1,2-a]pyridin-2-yl)methyl]-4-oxo-4H-pyrido [1,2-a]pyrimidine-2-carboxamide], the pIC50 is 6.92.
The value for `O=C(NCc1cn2cc(CNC[C@H](O)C(F)(F)F)ccc2n1)c1cc(=O)n2ccccc2n1` [Compound 125, 4-oxo-N-{[6-({[(2S)-3,3,3-trifluoro-2-hydroxypropyl]amino}methyl)imidazo[1,2-a]pyridin-2-yl]methyl}-4H-pyrido[1,2-a] pyrimidine-2-carboxamide] was 6.66; that for `O=C(NCc1cn2cc(CNCCF)ccc2n1)c1cc(=O)n2ccccc2n1` [Compound 128, N-[(6-{[(2-fluoroethyl)amino]methyl}imidazo [1,2-a]pyridin-2-yl)methyl]-4-oxo-4H-pyrido[1,2-a] pyrimidine-2-carboxamide] was 6.48.
Take `O=C(NCc1cn2cc(CN3CCC(F)(F)CC3)ccc2n1)c1cc(=O)n2ccccc2n1` [Compound 129, N-({6-[(4,4-difluoropiperidin-1-yl)methyl]imidazo [1,2-a]pyridin-2-yl}methyl)-4-oxo-4H-pyrido[1,2-a]pyrimidine-2-carboxamide]: the pIC50 is 7.07.
As to `O=C(NCc1cn2cc(CN3CCN(c4ccccc4)CC3)ccc2n1)c1cc(=O)n2ccccc2n1` [Compound 130, 4-oxo-N-({6-[(4-phenylpiperazin-1-yl)methyl]imidazo [1,2-a]pyridin-2-yl}methyl)-4H-pyrido[1,2-a] pyrimidine-2-carboxamide], the pIC50 is 6.69.
On to `O=C(NCc1cn2cc(CN3CCc4ccccc4C3)ccc2n1)c1cc(=O)n2ccccc2n1` [Compound 131, 4-oxo-N-({6-[(1,2,3,4-tetrahydroisoquinolin-2-yl)methyl]imidazo [1,2-a]pyridin-2-yl}methyl)-4H-pyrido [1,2-a]pyrimidine-2-carboxamide], for which the pIC50 is 7.06.
The value for `CCN(CC)Cc1ccc2nc(CNC(=O)c3cc(=O)n4ccccc4n3)cn2c1` [Compound 132, N-({6-[(diethylamino)methyl]imidazo [1,2-a]pyridin-2-yl}methyl)-4-oxo-4H-pyrido[1,2-a] pyrimidine-2-carboxamide] was 6.04.
Consider `O=C(NCc1cn2cc(CN3CCCC3)ccc2n1)c1cc(=O)n2ccccc2n1` [Compound 133, 4-oxo-N-({6-[(pyrrolidin-1-yl)methyl]imidazo[1,2-a]pyridin-2-yl}methyl)-4H-pyrido[1,2-a] pyrimidine-2-carboxamide], for which the pIC50 was 6.32.
Regarding `O=C(NCc1cn2cc(CN3CC(c4ccccn4)C3)ccc2n1)c1cc(=O)n2ccccc2n1` [Compound 134, 4-oxo-N-[(6-{[3-(pyridin-2-yl)azetidin-1-yl]methyl}imidazo[1,2-a]pyridin-2-yl)methyl]-4H-pyrido[1,2-a] pyrimidine-2-carboxamide], the pIC50 was 6.36.
`O=C(NCc1cn2cc(CNC(C3CC3)C3CC3)ccc2n1)c1cc(=O)n2ccccc2n1` [Compound 135, N-[(6-{[(dicyclopropyl-methyl)amino]methyl}imidazo [1,2-a]pyridin-2-yl)methyl]-4-oxo-4H-pyrido [1,2-a]pyrimidine-2-carboxamide]: the pIC50 was 7.74.
`CN(Cc1ccc2nc(CNC(=O)c3cc(=O)n4ccccc4n3)cn2c1)CC1CC1` [Compound 136, N-[(6-{[(cyclopropyl-methyl)(methyl)amino]methyl}imidazo[1,2-a]pyridin-2-yl)methyl]-4-oxo-4H-pyrido[1,2-a]pyrimidine-2-carboxamide]: the pIC50 was 7.00.
Turning to `CC1CCN(Cc2ccc3nc(CNC(=O)c4cc(=O)n5ccccc5n4)cn3c2)CC1` [Compound 137, N-({6-[(4-methylpiperidin-1-yl)methyl]imidazo[1,2-a]pyridin-2-yl}methyl)-4-oxo-4H-pyrido[1,2-a] pyrimidine-2-carboxamide], the pIC50 is 7.75.
As to `O=C(NCc1cn2cc(CN3CCC(C(F)(F)F)CC3)ccc2n1)c1cc(=O)n2ccccc2n1` [Compound 138, 4-oxo-N-[(6-{[4-(trifluoromethyl)piperidin-1-yl]methyl}imidazo [1,2-a]pyridin-2-yl)methyl]-4H-pyrido[1,2-a] pyrimidine-2-carboxamide], the pIC50 was 7.50.
The value for `CC1CCCN(Cc2ccc3nc(CNC(=O)c4cc(=O)n5ccccc5n4)cn3c2)C1` (centres unmarked) [Compound 139, N-({6-[(3-methylpiperidin-1-yl)methyl]imidazo[1,2-a]pyridin-2-yl}methyl)-4-oxo-4H-pyrido[1,2-a]pyrimidine-2-carboxamide] was 7.49.
As to `O=C(NCc1cn2cc(CNCC3CC34CC4)ccc2n1)c1cc(=O)n2ccccc2n1` (centres unmarked) [Compound 140], the pIC50 was 7.73.
As to `CC1(C)CCCN(Cc2ccc3nc(CNC(=O)c4cc(=O)n5ccccc5n4)cn3c2)C1` [Compound 141, N-({6-[(3,3-dimethylpiperidin-1-yl)methyl]imidazo[1,2-a]pyridin-2-yl}methyl)-4-oxo-4H-pyrido[1,2-a]pyrimidine-2-carboxamide], the pIC50 was 7.84.
